From paper PMC12689647, “Evaluation of bromadiolone combined with ciprofloxacin, vitamin D, aspirin, and cinnamon as an apoptosis-mediated rodenticide strategy” (Scientific Reports, 2025)
Where two headings read alike, the source gives them in different places.

Assays:
[1] = tested on: male wild rats of Rattus norvegicus; format: in vivo; details: oral; for Mortality% / Dead: one week; for Linear probit / Linear response %: probit fit; for Dead: 8 treated
Description: An approximate LD₅₀ was initially determined as a pilot study using the staircase method. Seventy adult male rats weighing 150–200 g were randomized and divided into ten groups (n = 10 × 7). Group I served as the control, while groups II, III, IV, V, VI, VII, VIII, IX, and X were treated orally with the following doses of bromadiolone, respectively: 0.3, 0.6, 0.9, 1.1, 1.2, 1.4, 1.8, 2.2, and 2.8 mg/kg b.w. The animals were observed during the first 2 h and then at 6 and 24 h for any toxic symptoms. Time to death and mortality were recorded over four days following administration. After one week, the LD₅₀ value was determined using probit analysis as described in[27].

cleaved caspase-3 = test: Western blot of liver tissue, cleaved caspase-3; format: in vivo, Rattus norvegicus; details: Western blot normalized to β-actin, oral, 21 days
Description: (§1) Adult male rats (n = 7 × 9 = 63), weighing 150–200 g, were randomized and divided into seven groups. Group I served as the control. Group II received the vehicle control (0.1 ml/100 g ethanol). Group III was treated with bromadiolone (B) at ½ LD₅₀ (0.8 mg/kg)[28]. Group IV received bromadiolone (0.8 mg/kg) + ciprofloxacin (Anti.20 mg/kg)[29]. Group V received bromadiolone (0.8 mg/kg) + ciprofloxacin (20 mg/kg) + vitamin D (Vit. D 35 mg/kg)[30]. Group VI received bromadiolone (0.8 mg/kg) + ciprofloxacin (20 mg/kg) + vitamin D (35 mg/kg) + cinnamon (Cin. 2 g/kg)[31]. Group VII received bromadiolone (0.8 mg/kg) + ciprofloxacin (20 mg/kg) + vitamin D (35 mg/kg) + aspirin (A. 150 mg/kg)[32]. All doses were administered orally to wild rats over 21 days. The chemical we used for the euthanizing process: rats were narcotized by Ketamine + xylazine injection (IP) and then sacrificed by slaughtering.
For the immunodetection and quantification of proteins such as p21 and cleaved caspase-3, markers of apoptotic cell death under various treatments, liver tissue was homogenized using RIPA lysis buffer. The samples were chopped and briefly sonicated on ice, and protein concentration was measured. Proteins (20 µg) were separated using SDS-PAGE and transferred to a nitrocellulose membrane. […] The optical densities of the bands were quantified and normalized to β-actin (1:5000) using ImageJ software.

liver DNA = format: in vivo, Rattus norvegicus; details: oral, 21 days
Description: as §1
For the coated slides, 100 µL of cell suspension was mixed with 600 µL of low-melting agarose (0.8% in PBS). The coated slides were immersed for 15 min in a lysis solution containing 2.5% sodium dodecyl sulfate (SDS) and 0.045 M Tris-borate-EDTA (TBE) buffer at pH 8.4. The slides were then placed in an electrophoresis chamber filled with TBE buffer without SDS. Electrophoresis was conducted at 100 mA for two minutes at 2 V/cm. Staining was performed at 4 °C using 20 µg/mL ethidium bromide (EtBr). EtBr-stained DNA was visualized using a fluorescent microscope with a 40× objective and an excitation filter of 420–490 nm to detect DNA damage. Qualitative and quantitative assessments of tail length, tail moment, olive tail moment, and percentage of DNA in the head were determined using OpenComet software to evaluate five images.

liver cells = test: Apoptosis estimation by acridine orange fluorescence staining; format: in vivo, Rattus norvegicus; details: AO staining, oral, 21 days
Description: as §1
Before staining with 0.01% acridine orange (AO) (stock solution: 0.1% AO in distilled water, diluted with phosphate buffer to a staining solution at pH 7.2), the sample was quickly passed through a graded alcohol series (80 − 50%) followed by distilled water. […] Acridine orange emits sharp green fluorescence when bound to DNA (apoptosis).

[2] = male wild rats, probit analysis software

SMILES: O=c1oc2ccccc2c(O)c1C(CC(O)c1ccc(-c2ccc(Br)cc2)cc1)c1ccccc1 (centres unmarked) [Bromadiolone]
- Mortality% ([1]; dose 0.3 mg/kg b.w.): 12.5%
- Observed response % ([1]; dose 0.3 mg/kg b.w., probit analysis): 14.286%
- Linear probit ([1]; dose 0.3 mg/kg b.w.): 3.6051
- Linear response % ([1]; dose 0.3 mg/kg b.w.): 8.159%
- Mortality% ([1]; dose 0.6 mg/kg b.w.): 25%
- Observed response % ([1]; dose 0.6 mg/kg b.w., probit analysis): 14.286%
- Linear probit ([1]; dose 0.6 mg/kg b.w.): 4.1699
- Linear response % ([1]; dose 0.6 mg/kg b.w.): 20.3258%
- Dead ([1]; dose 0.9 mg/kg b.w.): 3
- Mortality% ([1]; dose 0.9 mg/kg b.w.): 37.5%
- Observed response % ([1]; dose 0.9 mg/kg b.w., probit analysis): 28.571%
- Linear probit ([1]; dose 0.9 mg/kg b.w.): 4.5
- Linear response % ([1]; dose 0.9 mg/kg b.w.): 30.855%
- Dead ([1]; dose 1.1 mg/kg b.w.): 3
- Mortality% ([1]; dose 1.1 mg/kg b.w.): 37.5%
- Observed response % ([1]; dose 1.1 mg/kg b.w., probit analysis): 28.571%
- Linear probit ([1]; dose 1.1 mg/kg b.w.): 4.6635
- Linear response % ([1]; dose 1.1 mg/kg b.w.): 36.8278%
- Dead ([1]; dose 1.2 mg/kg b.w.): 4
- Mortality% ([1]; dose 1.2 mg/kg b.w.): 50%
- Observed response % ([1]; dose 1.2 mg/kg b.w., probit analysis): 42.857%
- Linear probit ([1]; dose 1.2 mg/kg b.w.): 4.7344
- Linear response % ([1]; dose 1.2 mg/kg b.w.): 39.5276%
- Dead ([1]; dose 1.4 mg/kg b.w.): 4
- Mortality% ([1]; dose 1.4 mg/kg b.w.): 50%
- Observed response % ([1]; dose 1.4 mg/kg b.w., probit analysis): 42.857%
- Linear probit ([1]; dose 1.4 mg/kg b.w.): 4.8599
- Linear response % ([1]; dose 1.4 mg/kg b.w.): 44.4304%
- Dead ([1]; dose 1.8 mg/kg b.w.): 5
- Mortality% ([1]; dose 1.8 mg/kg b.w.): 62.5%
- Observed response % ([1]; dose 1.8 mg/kg b.w., probit analysis): 57.143%
- Linear probit ([1]; dose 1.8 mg/kg b.w.): 5.0647
- Linear response % ([1]; dose 1.8 mg/kg b.w.): 52.578%
- Mortality% ([1]; dose 2.2 mg/kg b.w.): 62.5%
- Observed response % ([1]; dose 2.2 mg/kg b.w., probit analysis): 57.143%
- Linear probit ([1]; dose 2.2 mg/kg b.w.): 5.2281
- Linear response % ([1]; dose 2.2 mg/kg b.w.): 59.022%
- Dead ([1]; dose 2.8 mg/kg b.w.): 8
- Mortality% ([1]; dose 2.8 mg/kg b.w.): 100%
- Observed response % ([1]; dose 2.8 mg/kg b.w., probit analysis): 71.429%
- Linear probit ([1]; dose 2.8 mg/kg b.w.): 5.4246
- Linear response % ([1]; dose 2.8 mg/kg b.w.): 66.4427%
- LD25 [1, 2]: 0.7264 mg/kg
- LD50 [1, 2]: 1.6626 mg/kg
- LD75 [1, 2]: 3.8056 mg/kg
- LD90 [1, 2]: 8.0187 mg/kg
- LD95 [1, 2]: 12.5257 mg/kg
- LD99 [1, 2]: 28.9136 mg/kg
- LT25, Time [1, 2]: 2.187 days
- LT50, Time [1, 2]: 4.03 days
- LT75, Time [1, 2]: 7.426 days
- LT90, Time [1, 2]: 12.87 days
- LT95, Time [1, 2]: 17.89 days
- LT99, Time [1, 2]: 33.17 days
- LD50 ([1]; male wild rats, probit analysis software, listed as bromadiolone): 1.6 mg/kg
- Observed response % ([1]; time 1 day): 12.5%
- Linear probit ([1]; time 1 day): 3.4617
- Linear response % ([1]; time 1 day): 6.209%
- Observed response % ([1]; time 2 days): 12.5%
- Linear probit ([1]; time 2 days): 4.2266
- Linear response % ([1]; time 2 days): 21.9652%
- Observed response % ([1]; time 3 days): 37.5%
- Linear probit ([1]; time 3 days): 4.6741
- Linear response % ([1]; time 3 days): 37.2284%
- Observed response % ([1]; time 4 days): 50%
- Linear probit ([1]; time 4 days): 4.9918
- Linear response % ([1]; time 4 days): 49.6729%
- Linear probit ([1]; time 5 days): 5.2381
- Linear response % ([1]; time 5 days): 59.4089%
- Observed response % ([1]; time 7 days): 87.5%
- Linear probit ([1]; time 7 days): 5.6093
- Linear response % ([1]; time 7 days): 72.8843%
- increase in cleaved caspase-3 level compared to the control (cleaved caspase-3): 75.92%
- degree of liver DNA damage by comet assay (liver DNA; liver comet assay photomicrographs): moderate amount of damaged DNA
- increase in olive tail moment (OTM) compared to the control (liver DNA; liver comet assay): 710.02%
- increase in tail DNA% (T.DNA%) compared to the control (liver DNA; liver comet assay): 222.35%
- increase in tail length (TL) compared to the control (liver DNA; liver comet assay): 155.04%
- increase in tail moment (TM) compared to the control (liver DNA; liver comet assay): 506.09%
- decrease in normal cells compared to the control (liver cells): 18.66%
- increase in apoptotic cells compared to the control (liver cells): 109.72%
